Patent publication EP2118065B1, “Substituted 1H-benz[de]isoquinoline-1,3-diones” (priority 2007, dated 2008)
pIC50: −log10 of the molar value. Like-named read-outs stand apart in the source and are kept apart here.

What was measured:
HL-60 human leukemia = experiment: MTT in vitro cytotoxicity; settings: read-out: IC50 value Leukemia HL-60
U-937 lymphoma = experiment: MTT in vitro cytotoxicity; settings: read-out: IC50 value Lymphoma U-937
502713 = experiment: SRB in vitro cytotoxicity, human tumor cell line; assay type: cell-based; settings: 10^-5 M, Colon: 502713, read-out: growth inhibition
Protocol: (§1) Compounds 3a-g were screened by sulforhodamine-B (SRB) semi-automated assay in a battery of cell lines. […] A., et. al. (1991); Feasibility high flux anticancer screen utilizing diverse panel of human tumor cell lines in culture. J Natl Cancer Inst. 83, 757-766]. Each compound was tested in triplicate sets of experiments at 10^-4 to 10^-6 M concentrations (Table 4).
(§2) A stock solution of 2 x 10^-2M was prepared in DMSO. The stock solutions were serially diluted to obtain working test solutions with complete growth medium (RPMI-1640 medium with 2mM glutamine, 100µg/ml streptomycin, pH 7.4, sterilized by filtration and supplemented with 10% fetal bovine serum and 100 units/ml penicillin before use) containing 50 µg/ml of gentamycin to obtain working test solutions. The working test solutions were not filtered/ sterilized but microbial contamination was controlled by addition of gentamycin in complete growth medium used for dilution of stock solutions to prepare working test solutions.
(§3) In vitro cytotoxicity against human cancer cell lines was determined^2 [Monk. A., et. al. (1991); Feasibility high flux anticancer screen utilizing diverse panel of human tumor cell lines in culture. J Natl Cancer Inst. 83, 757-766] using 96-well tissue culture plates. The cells were grown in tissue culture flasks in complete growth medium at 37°C in an atmosphere of 5% CO2 and 95% relative humidity in a carbon dioxide incubator. The cell suspension of required cell density (1-2 lakhs/ml) depending on the mass doubling time of cell lines was prepared in complete growth medium for determination of cytotoxicity. The aliquots of 100 µl of cell suspension were added to each well on a 96-well tissue culture plate. The blank wells contained complete medium in place of cell suspension. Simultaneously, control experiments with positive controls containing known anticancer agents were carried out. Cells were incubated for 24 hr.
(§4) The test materials (100 µl in each well) were added after 24-hours to the wells containing cell suspension and blank wells. The cells were allowed to grow in presence of test material by further incubating the plates for 48 hours. At the end of incubation period the cell growth was stopped by gently layering trichloroacetic acid (50% TCA, 50µl/well) on top of the medium in all the wells. The plates were incubated at 4°C for 1 hr. The plates were washed five times with distilled water to remove TCA, growth medium, low molecular weight metabolites, serum proteins etc. and air-dried.
(§5) The cell growth was measured^3 [Skehan, P, Storeng, R Scudiero, D, Monks, A, Mcmahon, J, Vistica, D, Warren, J.T., Bokesch, H., Kenney, S., Boyd, M.R. (1990). New colorimetric cytotoxicity assay for anti-cancer drug screening. J Natl Cancer Inst. 82: 1107-12] by staining with Sulphorhodamine B. Sulphorhodamine B (SRB, 0.4% in 1% acetic acid, 100 µl/well) was added to each well and plates were allowed to stand at room temperature for 30 minutes. The plates were washed with 1% acetic acid four times and then dried. Tris-HCl buffer (0.01 M, pH 10.5, 100 µl/well) was added to each well to solublise the dye. The plates were shaken gently for 10 minutes on a shaker and the optical density was recorded on ELISA reader at 540 nm. The cell growth was determined by subtracting mean OD value of respective blank from the mean OD value of experimental set. Percent growth in presence of test material was calculated considering the growth in absence of any test material as 100% and in turn percent growth inhibition in presence of test material was calculated. All the experiments were carried out in quadruplicate.

HCT-15 = experiment: SRB in vitro cytotoxicity, human tumor cell line; assay type: cell-based; settings: 10^-5 M, Colon: HCT-15, read-out: growth inhibition
Protocol: as §1, §2, §3, §4, §5

IMR-32 = experiment: SRB in vitro cytotoxicity, human tumor cell line; assay type: cell-based; settings: 10^-5 M, Neuroblastoma: IMR-32, read-out: growth inhibition
Protocol: as §1, §2, §3, §4, §5

SW-620 = experiment: SRB in vitro cytotoxicity, human tumor cell line; assay type: cell-based; settings: 10^-5 M, Colon: SW-620, read-out: growth inhibition
Protocol: as §1, §2, §3, §4, §5

HL-60 cells = experiment: Annexin V-FITC/PI flow cytometric analysis of apoptosis; assay type: cell-based, human; settings: 24 h
Protocol: Induction of apoptosis in vitro by Compound 3b and 3f was further determined in HL-60 cells by flow cytometric assay using an Annexin V-FITC Apoptosis Detection Kit (BD Biosciences Pharmingen, San Diego, USA). Camptothecin was included in the study for comparison. Exponentially growing HL-60 cells in complete RPMI-1640 media (100 µl of 5×10^6) were plated in six well plates. 10 µl of each Compound in DMSO (5 and 10 µM concentrations) was added to the wells followed by the addition of required media (total volume 1ml). Plates were incubated at 37°C for 24 h. The cells were centrifuged at room temperature at 1500 rpm for 5 min. The pellet was washed twice with cold PBS and was re-suspended in the binding buffer (1X, 100µl) provided in the Kit. The cells were stained with Annexin V-FITC (5 µl) and Propidium Iodide [PI] (5µl) and incubated for 15 min in the dark at 25°C. Next 400µl of binding buffer was added to each tube and analyzed on a FACScan flow cytometer (Becton Dickinson, Mountainview, CA) using Cell Quest software. Cells stained with both Annexin-V-FITC and PI, containing DMSO as vehicle was used as stained control. Cells that were annexin^+ /Pr [Lower right quadrant (LR)] and annexin^+/PI^+ [Upper right quadrant (UR)] were considered as early apoptotic and late apoptotic respectively.

S-180 = experiment: In vivo anticancer activity: increase in median survival time; parameters: species or system Swiss albino male mice
S-180 cells = experiment: 3H-thymidine and 3H-uridine incorporation in vitro (DNA and RNA synthesis)
MOLT-4 cells [1] = experiment: Annexin V-FITC/PI flow cytometric analysis of apoptosis; assay type: cell-based, Human; settings: 5µM, 6 hrs
Protocol: Events of apoptosis were analyzed using Annexin V-FITC Apoptosis Detection Kit (A 2214 Sigma Aldrich, USA). Human leukemia Cells (MOLT-4, 1x10^6 cells/ml) in 6-well plate were treated with Compound 3f (3 and 5µg/ml), camptothecin (5µM) and incubated for 6 hrs. After incubation, the cells were centrifuged, rinsed with PBS twice and re-suspended in binding buffer (10 mM HEPES/NaOH, pH 7.5 containing 0.14M NaCl and 25 mM CaCl2). An aliquot (500 µl) of suspension was stained with of Annexin V-FITC (5 µl) and Propidium Iodide (10 µl). The cells were stored for 10 minutes at room temperature in the dark and then analyzed by BD-LSR flow cytometer (Becton Dickinson, USA) at two wavelengths to measure fluorescence for of Annexin V & PI binding at 515 and 639 nm.

MOLT-4 cells [2] = experiment: Flow cytometric DNA cell cycle analysis (sub-G1 fraction); assay type: cell-based, Human; settings: camptothecin 1µM, 3 hrs
Protocol: Effect of DNA content by cell cycle phase distribution was assessed using MOLT-4 cells. […] The incubation period was 3 hrs in case of camptothecin and 24 hrs. in rest of the treatments. The cells were then washed twice with ice-cold PBS, harvested, fixed with ice-cold PBS in 70% ethanol, and stored at -20 °C for 30 min. After fixation, the cells were incubated with RNase A (0.1 mg/ml) at 37°C for 30 min, stained with propidium iodide (50 µg/ml) for 30 min on ice in dark, and then measured for DNA content using BD-LSR Flow cytometer (Becton Dickinson, USA) equipped with electronic doublet, discrimination capability using blue (488nm) excitation from argon laser. Data were collected in list mode on 10,000 events for FL2-A vs. FL2-W and analyzed using Mod Fit 2.0 software (Fig 4). […] The sub-G1 fractions for control and camptothecin were 0.64 (Fig. 4A) and 11.92 % (Fig. 4B).

[3] = S-180, 30 mg/kg i.p., 7 injns., days 1-7
[4] = S-180, 60 mg/kg i.p., 7 injns., days 1-7
[5] = S-180, 60 mg/kg i.p., 7 injns., days 5-11
[6] = S-180, 20 mg/kg i.p., 7 injns., days 1-7
[7] = S-180, 6 mg/kg i.p., 7 injns., days 1-7
[8] = S-180, 0.5 mg/kg i.p., 7 injns., days 1-7
[9] = S-180, 1 mg/kg i.p., 7 injns., days 1-7

## O=NN(CCCl)C(=O)NCCCl [BCNU, Bis (2-chloroethyl-nitrosourea)]
HL-60 human leukemia; MTT, 96 h
  pIC50: 4.52
U-937 lymphoma; MTT, 96 h
  pIC50: 4.91

## N.N.[Cl][Pt][Cl] [Cis-Platinum]
HL-60 human leukemia; MTT, 96 h
  pIC50: 5.15
U-937 lymphoma; MTT, 96 h
  pIC50: 5.49

## O=C1c2cccc3c([N+](=O)[O-])ccc(c23)C(=O)N1CCCl [Compound 3b, 6-Nitro-2-[2-(Chloroethyl)]-1H-benz[de]isoquinoline-1,3-dione]
502713
  inhibition at 10 µM: > 50%
HCT-15
  inhibition at 10 µM: > 50%
IMR-32
  inhibition at 10 µM: > 50%
SW-620
  inhibition at 10 µM: > 50%
HL-60 cells; 5 µM
  early apoptotic cells (Annexin V^+/PI^-), LR: 4.5%
  late apoptotic cells (Annexin V^+/PI^+), UR: 5.2%
  total apoptotic cells (apoptotic cell population): 9.7%
HL-60 cells; 10 µM
  early apoptotic cells (Annexin V^+/PI^-), LR: 15.3%
  late apoptotic cells (Annexin V^+/PI^+), UR: 33.5%
  total apoptotic cells (apoptotic cell population): 48.8%
S-180; S-180, 40 mg/kg i.p., 7 injns., days 1-7
  MST: 20.5 days
S-180; S-180, 80 mg/kg i.p., 7 injns., days 1-7
  MST: 23.0 days
HL-60 human leukemia; Homo sapiens, HL-60, 96 h
  pIC50: 6.10
U-937 lymphoma; Homo sapiens, U-937, 96 h
  pIC50: 6.18

## O=C1c2cccc3cc([N+](=O)[O-])cc(c23)C(=O)N1CCCCl [Compound 3g, 5-Nitro-2-[3-(Chloropropyl)]-1H-benz[de]isoquinoline-1,3-dione]
S-180; [3]
  MST: 25.5 days
  T/C %: 106%
S-180; [4]
  MST: 24.0 days
  T/C %: 129%
S-180; [5]
  MST: 25.0 days
  T/C %: 104%

## O=c1[nH]cc(F)c(=O)[nH]1 [Compound 5-FU, 5-fluorouracil, reference compound]
S-180; [6]
  MST: 53.5 days
  Survivors > 60 days: 3
  T/C %: 233%
S-180; mouse, in vivo
  T/C %: 233
HL-60 human leukemia; Homo sapiens, HL-60, 96 h
  pIC50: 3.58
U-937 lymphoma; Homo sapiens, U-937, 96 h
  pIC50: 5.33

## O=P1(N(CCCl)CCCl)NCCCO1 (stereo not shown) [Cyclophosphamide, reference compound]
S-180; [7]
  MST: 33.0 days
  T/C %: 143%

## NC(=O)NO [Hydroxyurea]
HL-60 human leukemia; Homo sapiens, HL-60, 96 h
  pIC50: 3.69
U-937 lymphoma; Homo sapiens, U-937, 96 h
  pIC50: 3.94

## CN(C)CCN1C(=O)c2cccc3cc([N+](=O)[O-])cc(c23)C1=O [Mitonafide, reference compound]
S-180; [8]
  MST: 36.5 days
  Survivors > 60 days: 1
  T/C %: 187%
S-180; [9]
  MST: 25.0 days
  T/C %: 128%
S-180 cells; Mus musculus, S-180, read-out: DNA synthesis inhibition (3H-thymidine uptake)
  inhibition at 8 µM: 93%
S-180 cells; S-180 cells, 8 µM, 1 hr incubation, with respect to control
  RNA synthesis inhibition (3H-uridine uptake): 92%

## CC[C@@]1(O)C(=O)OCc2c1cc1n(c2=O)Cc2cc3ccccc3nc2-1 [camptothecin, reference compound]
MOLT-4 cells [1]
  total apoptotic cells: 8.83%
MOLT-4 cells [2]
  sub-G1 fraction: 11.92%
HL-60 cells; 5 µM
  early apoptotic cells (Annexin V^+/PI^-), LR: 7.79%
  late apoptotic cells (Annexin V^+/PI^+), UR: 5.46%
  total apoptotic cells (apoptotic cell population): 13.3%
HL-60 cells; 10 µM
  early apoptotic cells (Annexin V^+/PI^-), LR: 10.52%
  late apoptotic cells (Annexin V^+/PI^+), UR: 5.30%
  total apoptotic cells (apoptotic cell population): 15.8%
